One data set relates to MCF-7 cells. The experiment in a line: Colocalization of peptide with MitoTracker (Manders' coefficients from confocal images). Conditions: MCF-7, after 24 h rest versus after 1 h incubation, Figure S7B; 10 µM for (ChaZZ)3, otherwise concentration not stated. It counts as cell-based. The protocol:
MCF-7 cells were seeded in a 8-μwell Ibidi plate at 25′000 cells/well in DMEM (100 μL, 10% FCS) and allowed to adhere overnight. The medium was removed, the cells were washed with PBS (200 μL, 1x) and incubated with the peptide solution at 20 μM, 10 μM, 5 μM or 2.5 μM in DMEM (200 μL, 1% FCS) for 1 h at 37 °C. The medium was removed, and the cells were washed with PBS (200 μL, 2x). MitoTracker Deep Red was distributed at 20 nM in DMEM (200 μL, 1% FBS) and the cells were incubated at 37 °C for 25 min. The medium was removed, and the cells were washed with PBS (200 μL, 2x). Hoechst333342 was distributed at 2 μM in DMEM (200 μL, 1% FBS) and the cells were incubated at 37 °C for 5 min. The cells were washed with PBS (200 μL, 2x), and FluoroBrite medium (200 μL) was added. The live cells were monitored on the confocal microscope at 37 °C, 5% CO2.
For the cells subjected to a 24 h rest period, the FluoroBrite medium was exchanged for DMEM (200 μL, 10% FBS) after the initial imaging, and the cells were kept in this medium for 24 h. The culture medium was then exchanged for FluoroBrite DMEM, and the cells were imaged again.
Fluorescence images of cells were collected using a Nikon Eclipse T1 (inverse) microscope equipped with a Yokogawa Confocal Scanner Unit CSU-W1-T2, containing a spinning disk (50 µm). The microscope is equipped with two EMCCD Andor iXon Ultra cameras. Emission in the blue channel (405 nm) was filtered with a 450/50 bandpass filter, emission in the green channel (488 nm) was filtered with a 525/50 bandpass, and the emission in the red channel (641 nm) was filtered with a 708/75 bandpass filter. Fluorescence images were obtained using an oil-immersion objective with a magnification of 100 × 1.4 CFI Plan Apo Oil.
Each experiment was repeated at least three times. The images acquired were adjusted using ImageJ2 software. Correlation coefficients were determined on entire images using JaCOP plugin.1 […]
MCF-7 cells were seeded in a 8-µwell Ibidi plate at 25’000 cells/well in DMEM (100 µL, 10% FCS) and allowed to adhere overnight. The medium was removed. The cells were washed with PBS (200 µL, 1x) and incubated with the peptide solution at 20 µM, 10 µM, 5 µM, or 2.5 µM in DMEM (200 µL, 1% FCS) for 1 h at 37 °C. The medium was removed, and the cells were washed with PBS (200 µL, 2x).
For imaging of mitochondria, MitoTracker Deep Red was added as described in the manuscript. […]
PBS (200 µL, 2x). For imaging of the nucleus, Hoechst333342 was added at (200 µL, 2 µM in DMEM, 1% FBS) followed by incubation of the cells at 37 °C for 5 min. The cells were washed with PBS (200 µL, 2x), and FluoroBrite medium (200 µL) was added. The live cells were monitored on the confocal microscope […]
MCF-7 cells were seeded in a 96-well plate at 7’500 cells/well in cell culture medium (200 µL, 10% FCS), and allowed to adhere overnight. The medium was removed, the cells were washed with PBS (100 µL, 1x) and incubated with the peptide solution at 20 µM, 10 µM, 5 µM, or 2.5 µM in DMEM (200 µL, 1% FCS) for 1 h at 37 °C. The medium was removed, and the cells were washed with PBS (100 µL, 1x). The MTT solution in DMEM (110 µL, 1.2 mM, 1% FBS) was added. The cells were incubated for 3 h at 37 °C. The supernatant was carefully removed, and DMSO (100 µL) was added. The plate was gently shaken for 30 min and the absorption of formazan solution at 570 nm was measured on the plate reader. […]

Data set [1] is described as follows: Stability of the peptides in cell lysate. It counts as in vitro ADME. Conditions: 200 µM peptide, 37 °C, RP-HPLC at 488 nm; for Stability in MCF-7 cell lysate: MCF-7 cell lysate 1 mg/mL protein in PBS, time points 0 min, 1 h and 24 h. The protocol: MCF-7 cells were grown to confluency in a T-175 flask. Cells were washed with PBS (12 mL, 4 °C) and subsequently scraped off into PBS (7 mL, 4 °C) and collected in a Falcon tube. The suspension was then sonicated for 3 sec at an amplitude of 30% followed by a 30 sec rest period, and the procedure was repeated three time. The insoluble fraction was removed by centrifugation for 10 min at 12.000 rcf, at 4 °C and the supernatant was transferred to a new tube. […]
Stability of the peptides in cell lysate
The peptides were added (final concentration of 200 µM) to the MCF-7 cell lysate, with a protein concentration adjusted to 1 mg/mL with PBS. Immediately after addition of the peptide to the cell lysate, a sample (80 µL) was taken as the t = 0 min time point. The sample was diluted in MeCN (1:1), kept on ice for 5 min and centrifuged (12.000 rcf, 10 min, 4 °C). The supernatant was filtered and analyzed by analytical RP-HPLC (at 488 nm) using the standard conditions (gradient 70 % to 45 % of B over 20 min at 25 °C).
The stability of the peptides was monitored at time points 0 min, 1 h and 24 h.

Where a SMILES comes first, the peptide text is derived from it. [ ]: non-standard residue; d: D form. The star is where a group is joined. 5FAM = O=C1OC2(c3ccc(O)cc3Oc3cc(O)ccc32)c2ccc(C(=O)*)cc21; Pro(cis-4-guanidino) = NC(N)=N[C@@H]1CN[C@H](C(=O)O)C1; Cha = N[C@@H](CC1CCCCC1)C(=O)O; Ahx = NCCCCCC(=O)O

Consider `N=C(N)N[C@H]1C[C@@H](C(=O)N2C[C@@H](NC(=N)N)C[C@H]2C(=O)N[C@@H](CC2CCCCC2)C(=O)N2C[C@@H](NC(=N)N)C[C@H]2C(=O)N2C[C@@H](NC(=N)N)C[C@H]2C(=O)N[C@@H](CC2CCCCC2)C(=O)N2C[C@@H](NC(=N)N)C[C@H]2C(=O)N2C[C@@H](NC(=N)N)C[C@H]2C(=O)N[C@@H](CC2CCCCC2)C(N)=O)N(C(=O)[C@H](CC2CCCCC2)NC(=O)CCCCCNC(=O)c2ccc3c(c2)C(=O)OC32c3ccc(O)cc3Oc3cc(O)ccc32)C1` [(ChaZZ)3-Cha, CF-Ahx-(ChaZZ)3-Cha-NH2] ({5FAM-Ahx}-[Cha][Pro(cis-4-guanidino)][Pro(cis-4-guanidino)][Cha][Pro(cis-4-guanidino)][Pro(cis-4-guanidino)][Cha][Pro(cis-4-guanidino)][Pro(cis-4-guanidino)][Cha]-NH2), for which, in the data set with MCF-7 cells, the “Fold change of MitoTracker overlap with the peptide (M2) after 24 h rest” value is given as “up to 3.6 fold” and the “Fold change of peptide overlap with MitoTracker (M1) after 24 h rest” value (from here on “Fold change of peptide overlap”) is recorded as “more than 1.5 fold”. The metabolised at 24 h in data set [1] (human, cells or culture medium, lysate 1 mg/mL protein in PBS, after 24 h incubation, read-out: Fraction degraded in MCF-7 cell lysate) is roughly 6%.
As to CF-Ahx-(ChaZZ)2-Cha-NH2, in the data set on MCF-7 cells, the “Fold change of MitoTracker overlap with the peptide (M2) after 24 h rest” value was determined as 0.4 fold and the “Fold change of peptide overlap” value is listed as 1.3 fold. Moreover, the “Stability in MCF-7 cell lysate” value in data set [1] is given as “degraded in the MCF-7 cell lysate over time”.
On to CF-Ahx-(ChaZZ)3-NH2, for which, in the data set on MCF-7 cells, the “Fold change of peptide overlap” value is given as greater than 2 fold. The “Stability in MCF-7 cell lysate” value in data set [1] is recorded as “stable”.

The values are drawn from paper PMC12455572, “Amphipathic Proline-Rich Cell Penetrating Peptides for Targeting Mitochondria” (ACS Chemical Biology, 2025).
